# Assay results published in patent US20200237773A1, “THERAPEUTIC COMBINATION OF A THIRD-GENERATION EGFR TYROSINE KINASE INHIBITOR AND A RAF INHIBITOR” (Novartis AG, priority 2017, published 2020).
# Legend:
# BRAF kinase = BRAF kinase (Homo sapiens, UniProt P15056); test: BRAF kinase inhibition; format: biochemical
# 456 kinases = test: Kinase binding selectivity panel; conditions: out of 456 kinases tested
# [1] = Anti-proliferative activity in cancer cell lines with MAPK-activating mutations; format: cell-based; conditions: Homo sapiens; range over A-375, A-375 with BRAFi/MEKi resistance alleles, MEL-JUSO, IPC-298, Calu-6; read-out: IC50, inhibition of proliferation
# [2] = system: cell lines that have wild-type BRAF and RAS; test: Anti-proliferative activity in wild-type BRAF and RAS cell lines; format: cell-based; conditions: Homo sapiens, read-out: IC50, inhibition of proliferation
# [3] = system: Calu-6 (KRAS Q61K), NCI-H358 (KRAS G12C), Hey-A8 (KRAS G12D, BRAF G464E), SK-MEL-30 xenografts; test: In vivo tumor xenografts, Compound B
# CYP3A4/5 = CYP3A4/5 inhibition; format: in vitro ADME
# [4] = system: EGFR mutant NSCLC cell lines HCC4006, HCC827, PC9, MGH707; test: Short-term viability assay (CellTiter-Glo, 5 days); format: cell-based
# Procedure: FIG. 1A and FIG. 1B: Dose response curves in EGFR mutant NSCLC cell lines (FIG. 1A: HCC4006 and HCC827 cell lines. FIG. 1B: PC9 and MGH707 cell lines). for Compound B in the presence of DMSO (curves at the top of Figures) or 300nM EGF816 (“Cmpd A”-curves at the bottom of Figures). % Activity is a measure of cell number as read out by cell-titer glo. 0 represents the CTG value at Day 0 and 100 represents the value of untreated growth at day 5.
# The potential efficacy of adding a MAPK pathway inhibitor such as Compound B to a third-generation EGFR tyrosine kinase inhibitor such as EGF816 in EGFR mutant NSCLC was assessed as follows. A panel of EGFR mutant NSCLC cell lines was treated with a fixed dose (300 nM) of
# EGF816 (“Compound A”) or DMSO in combination with Compound B across a 10-dose range for 5 days.
# PC9, HCC827, HCC4006, NCI-H1975 and MGH707 are all EGFR mutant NSCLC cell lines sensitive to EGF816. PC9, HCC827, HCC4006 and NCI-H1975 were obtained from the cancer cell line encyclopedia (CCLE) database. MGH707 were obtained from Massachusetts General Hospital. All cell lines were maintained in RMPI media supplemented with 10% fetal bovine serum.
# Compound A (EGF816) and Compound B were all re-suspended in DMSO at a concentration of 10 mM for a stock solution and further diluted for the experiments as indicated.
# The following EGFR mutant (EGFR mt) NSCLC cell lines were plated at the following densities: HCC827 (exon 19 deletion, or ex19del for short) (500/well), HCC4006 (ex19del) (500/well), PC9 (ex19del)(500/well), and MGH707 parental (1000/well) into white 384-well plates (#3707, Corning, Oneonta, N.Y., USA) and stored in an incubator overnight at 37° C., 95% relative humidity, and 5% CO2. Compounds were serial diluted (1:3 dilution) in DMSO in an acoustic plate (#P-05525, Labcyte, San Jose, Calif., USA) using a Biomek liquid handler (Beckman, Indianapolis, Ind., USA). Compound A was dispensed into the first row of a Labcyte P-05525 source plate. The compound plates were then used to deliver combinations to assay plates using an acoustic dispenser (Echo-555, Labcyte, San Jose, Calif., USA). Each dispense was 50 nL which achieved a 1:1000 dilution (ie. 50 nL dispense of a 10 mM compound becomes 10 uM in 50 uL of cell solution). The combination treatment included a second dispense of 50 nL of Compound A to achieve a final concentration of 0.3 uM. Upon completion of dosing each assay plate was returned to an incubator (37° C., 95% relative humidity, and 5% CO2). 25 uL/well of CellTiter-Glo One Solution cell viability reagent (#G8462, Promega, Madison, Wis., USA) was added to an untreated plate of each cell line using a bulk dispenser (EL406, Biotek, Winooski, Vt., USA) and after 20 minutes of incubation at room temperature, the plates were read on a microplate reader (Envision, Perkin Elmer, Hopkington, Mass., USA). […] After 5 days of incubation, the assay plates are read using the same CellTiter-Glo assay reagent and read on the Envision microplate reader.
# [5] = system: EGFR mutant NSCLC cell lines HCC4006, HCC827, PC9, MGH707; test: Long-term viability assay (confluence, 14 days); format: cell-based
# Procedure: FIG. 2A and FIG. 2B: Dose response of Compound B (“Cmpd B”) in EGFR mutant NSCLC lines in combination with Compound A (EGF816) (“Cmpd A”) (300 nM) (FIG. 2A: HCC4006 and HCC827 cell lines. FIG. 2B: PC9 and MGH707 cell lines). Cells were treated with fresh drug and imaged for confluence measurement twice per week for two weeks. Cell confluence was used as a surrogate for cell number. It is shown that a Raf-inhibitor in combination with EGF816 slows drug-tolerant cell outgrowth.
# Combinations of Compound A and Compound B were further examined in long-term drug combination growth assays. The same EGFR mutant NSCLC cell lines as were used in Example 1 above were treated with EGF816 alone or EGF816 in combination with Compound B across a 5-dose range for 14 days as follows.
# PC9 (6000/well), HCC827 (4000/well), HCC4006 (5000/well), and MGH707 (5000/well) cells were plated into 96-well plates and the following day treated with EGF816 (300 nM) +either DMSO or a range of doses of either Compound B (0.03, 0.1, 0.3, 1 and 3 uM) for two weeks. Drug was refreshed twice per week. Cell confluence was used as a surrogate for cell number and was measured by an incucyte zoom at t=0, 4, 7, 10 and 14 days treatment.
# wild-type (WT) EGFR [6] = biological target: T1, wild-type (WT) EGFR (Homo sapiens, UniProt P00533); test: Inhibition of wild-type EGFR by Compound A; conditions: at clinically relevant efficacious concentrations
# [7] = system: EGFR mutant (L858R, ex19del and T790M) cancer models; test: EGFR mutant cancer models (in vitro and in vivo), Compound A
# xenograft models = test: Xenograft models, Compound A; format: in vivo
# EGFR-mutant NSCLC = test: Previous study of EGF816 at 100 mg and 150 mg daily; format: in vivo, human; conditions: 100 mg daily compared with 150 mg daily
# [8] = system: EGFR activating and acquired resistance mutants (L858R, ex19del and T790M); conditions: cited from earlier work
# wild-type (WT) EGFR [9] = biological target: T1, wild-type (WT) EGFR; conditions: cited from earlier work
# [10] = system: advanced non-small cell lung cancer (NSCLC) harboring T790M; conditions: cited from earlier work
# T1 sequence (P00533 25-1210): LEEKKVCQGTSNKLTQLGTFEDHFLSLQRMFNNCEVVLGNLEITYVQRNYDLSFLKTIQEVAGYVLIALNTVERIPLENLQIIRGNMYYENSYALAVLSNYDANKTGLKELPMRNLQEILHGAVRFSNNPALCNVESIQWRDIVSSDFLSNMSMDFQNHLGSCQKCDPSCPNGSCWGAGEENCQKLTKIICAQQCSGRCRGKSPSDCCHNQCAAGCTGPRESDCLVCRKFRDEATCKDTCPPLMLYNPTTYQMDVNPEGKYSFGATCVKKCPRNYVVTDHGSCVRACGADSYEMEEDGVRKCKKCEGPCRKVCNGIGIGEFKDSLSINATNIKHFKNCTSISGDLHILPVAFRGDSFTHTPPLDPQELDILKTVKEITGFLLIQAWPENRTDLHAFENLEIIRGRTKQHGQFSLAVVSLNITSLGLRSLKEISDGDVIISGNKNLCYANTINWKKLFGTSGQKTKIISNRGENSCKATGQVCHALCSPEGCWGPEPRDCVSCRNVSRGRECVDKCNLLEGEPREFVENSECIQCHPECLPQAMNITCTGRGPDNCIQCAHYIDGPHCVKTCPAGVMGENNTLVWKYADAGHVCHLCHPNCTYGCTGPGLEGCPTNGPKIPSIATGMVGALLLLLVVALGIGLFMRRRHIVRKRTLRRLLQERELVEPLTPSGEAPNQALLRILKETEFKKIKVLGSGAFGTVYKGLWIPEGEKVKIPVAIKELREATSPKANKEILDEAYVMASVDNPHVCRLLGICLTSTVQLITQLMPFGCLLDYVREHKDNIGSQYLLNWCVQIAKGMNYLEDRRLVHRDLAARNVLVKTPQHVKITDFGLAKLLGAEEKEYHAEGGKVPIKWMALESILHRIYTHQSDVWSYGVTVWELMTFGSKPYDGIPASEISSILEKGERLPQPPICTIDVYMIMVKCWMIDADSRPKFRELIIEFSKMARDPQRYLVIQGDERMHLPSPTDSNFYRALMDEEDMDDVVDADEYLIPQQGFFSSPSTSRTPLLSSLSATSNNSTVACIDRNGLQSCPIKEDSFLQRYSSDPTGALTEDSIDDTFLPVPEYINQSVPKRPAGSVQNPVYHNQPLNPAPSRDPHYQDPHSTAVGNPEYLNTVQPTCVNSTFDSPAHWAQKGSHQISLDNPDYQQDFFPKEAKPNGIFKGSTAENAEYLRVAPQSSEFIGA
# Sequence of BRAF kinase (P15056 whole entry): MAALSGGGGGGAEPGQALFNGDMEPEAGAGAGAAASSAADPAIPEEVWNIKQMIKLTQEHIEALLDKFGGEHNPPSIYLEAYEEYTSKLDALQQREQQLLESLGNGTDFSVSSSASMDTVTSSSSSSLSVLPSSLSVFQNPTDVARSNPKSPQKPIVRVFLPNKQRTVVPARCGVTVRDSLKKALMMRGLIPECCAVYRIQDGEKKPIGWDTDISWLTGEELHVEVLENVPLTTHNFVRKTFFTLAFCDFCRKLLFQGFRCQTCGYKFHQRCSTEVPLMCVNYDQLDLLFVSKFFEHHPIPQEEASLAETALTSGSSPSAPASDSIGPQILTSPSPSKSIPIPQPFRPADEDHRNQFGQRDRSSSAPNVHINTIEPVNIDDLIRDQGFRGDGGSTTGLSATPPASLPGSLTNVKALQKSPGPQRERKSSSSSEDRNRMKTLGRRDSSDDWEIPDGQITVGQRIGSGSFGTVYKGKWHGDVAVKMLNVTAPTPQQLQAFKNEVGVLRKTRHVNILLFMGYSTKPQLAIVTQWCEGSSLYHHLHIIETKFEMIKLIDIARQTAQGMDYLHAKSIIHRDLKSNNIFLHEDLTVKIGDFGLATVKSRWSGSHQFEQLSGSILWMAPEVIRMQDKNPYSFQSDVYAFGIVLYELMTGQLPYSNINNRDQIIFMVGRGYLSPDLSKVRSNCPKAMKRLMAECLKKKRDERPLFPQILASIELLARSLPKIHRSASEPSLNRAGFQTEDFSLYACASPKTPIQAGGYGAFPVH
structure (smiles),measurement,setting,value
"Cc1ccc(NC(=O)c2ccnc(C(F)(F)F)c2)cc1-c1cc(OCCO)nc(N2CCOCC2)c1 [Compound B, N-(3-(2-(2-hydroxyethoxy)-6-morpholinopyridin-4-yl)-4-methylphenyl)-2-(trifluoromethyl)isonicotinamide]",IC50,BRAF kinase,0.00073 µM
same,number of other kinases whose binding is inhibited to a similar degree,456 kinases,2
same,IC50,[1],0.2 to 1.2 µM
same,IC50,[2],> 20 µM
same,tumor response,"[3]; KRAS-mutant Calu-6, NCI-H358, Hey-A8 and NRAS-mutant SK-MEL-30 xenografts",tumor regression
same,dose dependence of anti-tumor effects,[3]; in all cases,dose-dependent
same,tolerability / body weight,[3]; in all cases,well tolerated with minimal body weight loss
same,CYP3A4/5 inhibition,CYP3A4/5,inhibitor of CYP3A4/5
same,"cell growth (% Activity, cell-titer glo)","[4]; Compound B added to 300 nM EGF816, 5 days, HCC4006, HCC827 and PC9",enhanced suppression of cell growth
same,"cell growth (% Activity, cell-titer glo)","[4]; Compound B added to 300 nM EGF816, 5 days, MGH707",less effective
same,"cell growth (% Activity, cell-titer glo)","[4]; Compound B single agent (DMSO), 5 days, all cell lines",suppressed
same,sensitization to Compound B by EGF816,"[4]; with 300 nM EGF816 compared to single agent, HCC4006, HCC827 and PC9",active at lower doses
same,residual outgrowth of EGFR mutant persister cells (cell confluence),"[5]; Compound B 0.03-3 uM with 300 nM EGF816, 14 days",markedly suppressed
same,response to the combination (cell confluence),"[5]; Compound B with 300 nM EGF816, 14 days, MGH707",most refractory
same,cell number (cell confluence),"[5]; Compound B with 300 nM EGF816, 14 days, PC9",more pronounced drop in cell number
"Cc1cc(C(=O)Nc2nc3cccc(Cl)c3n2[C@@H]2CCCCN(C(=O)/C=C/CN(C)C)C2)ccn1 [Compound A, (R,E)-N-(7-chloro-1-(1-(4-(dimethylamino)but-2-enoyl)azepan-3-yl)-1H-benzo[d]imidazol-2-yl)-2-methylisonicotinamide]",WT EGFR inhibition,wild-type (WT) EGFR [6],no indication of WT EGFR inhibition
same,efficacy in EGFR mutant cancer models,[7],significant efficacy
same,tolerability / body weight,xenograft models; at efficacious doses,well tolerated with no body weight loss
same,anti-tumor efficacy,xenograft models; several xenograft models,Dose-dependent anti-tumor efficacy
same,overall response rates,EGFR-mutant NSCLC,similar
same,rates of rash and diarrhoea,EGFR-mutant NSCLC,lower rates of rash and diarrhoea
same,"cell growth (% Activity, cell-titer glo)","[4]; EGF816 alone 300 nM, 5 days, all cell lines",robust growth suppression
same,sensitivity to single agent EGF816,"[5]; 300 nM EGF816 alone, PC9",more exquisitely sensitive
same,inhibition of EGFR mutants,[8],selectively inhibits
same,effect on wild-type EGFR,wild-type (WT) EGFR [9],sparing
same,antitumor activity in patients,[10],durable antitumor activity
